Source: patent US20120225852A1, “USE OF STEROID COMPOUNDS” (priority 2009, published 2012)

Columns and labels:
[1] = system: Lymph node (LN) cells from unprimed DO11.10 TCR Tg mice; experiment: OVA-stimulated lymph node cell culture, T cell proliferation; format: cell-based
[2] = system: purified CD4+ T cells from unprimed DO11.10 TCR Tg mice; experiment: Purified CD4+ T cells with mitomycin C-treated splenocytes and OVA peptide 323-339; format: cell-based; conditions: OVA peptide 323-339; FIG. 2
Text: (§1) The decreased proliferative response of CD4^+ T cells was not due to increased cell death as evident by similar numbers of CD4^+ 7AAD^− cells in all cultures after flow-cytometric analysis (FIG. 4).

[3] = system: purified CD4+ T cells from unprimed BALB/c mice; experiment: Purified CD4+ T cells stimulated with α-CD3/α-CD28; format: cell-based; conditions: non antigen-specific stimulation; FIG. 3
Text: as §1

[4] = system: MOG peptide-induced experimental autoimmune encephalomyelitis (EAE); experiment: MOG peptide-induced EAE, treatment from the day of EAE induction; format: in vivo, C57BL/6 mice
Text: EAE is an autoimmune condition of the central nervous system (CNS) and results from infiltration of the central nervous system by destructive autoreactive T lymphocytes and subsequent demyelination and axonal and neuronal degeneration.
(§2) Acute EAE was induced in C57BL/6 mice by immunizing them against the pathogenic myelin oligodendrocyte glycoprotein (MOG) peptide (amino acids 35-55). […] Mice were monitored daily in a blinded fashion for clinical symptoms (paralysis). Tissues (brain, spinal cord, DLNs) were collected in order to perform histological evaluation (staining with H&E on brain and spinal cord sections) and ex vivo cultures for measurement of T cell responses and cytokine release.

[5] = system: Draining lymph node cells from mice induced to develop EAE; experiment: Ex vivo response of draining lymph node cells to MOG35-55, mice treated from EAE induction; format: in vivo, C57BL/6 mice; conditions: treatment from EAE induction
Text: as §2
Also tested were the proliferative response and cytokine secretion of lymphoid cells (T cells) to MOG35-55 peptide from the mice that had been induced to develop EAE. […] In addition, the secretion of the inflammatory cytokine IL-17 was increased (FIG. 9d), but its absolute increase was extremely low in comparison to the IFN-γ increase.

[6] = system: Draining lymph node cells from mice induced to develop EAE; experiment: Ex vivo cytokine secretion of draining lymph node cells to MOG35-55, mice treated from EAE onset; format: in vivo, C57BL/6 mice; conditions: treatment from EAE onset
Description: Tests were also carried out to discover whether DHEA and its spiro-analogs were protective after the onset of experimental autoimmune encephalomyelitis (EAE). For these tests, acute EAE was induced in C57BL/6 mice, as previously described. […] Mice were monitored daily in a blinded fashion for clinical symptoms (paralysis). Tissues (brain, spinal cord, DLNs) were collected in order to perform histological evaluation (staining with H&E on brain and spinal cord sections) and ex vivo cultures for measurement of T cell responses and cytokine release.
Also tested were the cytokine secretion of lymphoid cells (T cells) to MOG35-55 peptide from the mice that had been induced to develop EAE.

[7] = system: established MOG peptide-induced EAE; experiment: Established MOG peptide-induced EAE, treatment from day 13; format: in vivo, C57BL/6 mice
Text: as §2, with “the animals” for “them”, “35-55). Mice were left untreated until disease symptoms were apparent (score 1-2) at around day 12.” for “35-55).”

[8] = system: Draining lymph node cells from mice induced to develop EAE; experiment: Immune responses of mice with established EAE treated from day 13 (DLN cells to MOG35-55, cell subsets); format: in vivo, C57BL/6 mice
Text: as §2, with “the animals” for “them”, “35-55). Mice were left untreated until disease symptoms were apparent (score 1-2) at around day 12.” for “35-55).”

[9] = system: ongoing EAE in recipient mice; experiment: Adoptive transfer of DLN cells from treated EAE donors into recipients with ongoing EAE; format: in vivo
Text: The donor DLN cells were obtained on day 17, which is the peak of disease for control mice. This protection was observed until day 28-30 when the mice were euthanized.

[10] = system: EAE in C57BL/6 Rag−/− recipients; experiment: Adoptive transfer of CD4+ T cells from treated EAE donors into C57BL/6 Rag-/- recipients; format: in vivo, C57BL/6 Rag−/− mice
EAE = EAE after cessation of 15 days of treatment, 45 additional days of monitoring; format: in vivo, C57BL/6 mice
Text: The mice continued to be monitored daily for clinical signs of EAE for 45 additional days thereafter.

Naive CD4+ T cells = Naive CD4+ T cells under Th17 cell polarizing conditions; format: cell-based
naïve CD4+ T cells = experiment: Naive CD4+ T cells under Treg cell generating conditions; format: cell-based
[11] = system: response to OVA in EAE-induced mice; experiment: EAE mice treated for 15 days, then immunized with OVA/CFA; format: in vivo, C57BL/6 mice
Description: Treatment stopped and mice were then injected with OVA/CFA (Complete Freund's Adjuvant).
Instead, the response to a new antigen that the mice are exposed to is enhanced.

[12] = 2 mg/mouse i.p. daily from EAE induction, in comparison to the control, FIG. 7

C[C@]12CC[C@H](O)CC1=CC[C@@H]1[C@@H]2CC[C@]2(C)C(=O)CC[C@@H]12 [DHEA, dehydroepiandrosterone]
proliferation of the T cells that respond to the antigen ([1]; LN cells stimulated with OVA, vs control RPMI, FIG. 1): significantly decreased
effect on T cell responses in general ([1]; overall conclusion of Example 1 (FIGS. 1-4)): immunosuppressive effect
proliferation [2]: significantly decreased
secretion of IFN-γ [2]: significantly decreased
secretion of IL-2 [2]: significantly decreased
effect on α-CD3/α-CD28 stimulated CD4+ T cells [3]: same suppressive effect
degree of paralysis ([4]; 2 mg/mouse i.p. daily from EAE induction until day 26, vs PBS): decreased
clinical course ([4]; 2 mg/mouse i.p. daily from EAE induction until day 26, FIG. 6): improvement
mean maximum score ([4]; 2 mg/mouse i.p. daily from EAE induction until day 26, FIG. 7): decrease
incidence of disease [4, 12]: low incidence
onset of disease [4, 12]: delayed onset
inflammation in the spinal cord ([4]; 2 mg/mouse i.p. daily from EAE induction, H&E, FIG. 8): decreased inflammation
protection against MOG peptide-induced EAE ([4]; overall conclusion, treatment from EAE induction): conferred protection
pathogenic immune response ([5]; overall conclusion): significantly suppressed
proliferation to MOG35-55 peptide ([5]; FIG. 9a): significantly decreased
amounts of IFN-γ produced ([5]; FIG. 9b): substantially increased
amounts of IL-10 produced ([5]; FIG. 9c): substantially increased
secretion of IL-17 ([5]; absolute increase extremely low compared to IFN-γ, FIG. 9d): increased
amounts of IL-10 produced ([6]; FIG. 13a): greatly increased
secretion of IFN-γ ([6]; FIG. 13b): substantially decreased
secretion of IL-17 ([6]; FIG. 13c): substantially decreased
clinical course ([7]; 2 mg/mouse i.p. daily from day 13, FIG. 16): significant improvement
mean maximum score ([7]; 2 mg/mouse i.p. daily from day 13, FIG. 17): decrease
inflammation in the spinal cord ([7]; 2 mg/mouse i.p. daily from day 13, FIG. 18): decreased inflammation
degree of paralysis ([7]; 2 mg/mouse i.p. daily from day 13 until day 26-28): significantly decreased
ongoing MOG peptide-induced EAE ([7]; overall conclusion, treatment from day 13): suppressed
pathogenic immune response and symptoms ([8]; overall conclusion, mice with ongoing EAE): significantly suppressed
proliferation to MOG35-55 peptide ([8]; treatment from day 13, FIG. 19a): significantly decreased
amounts of IFN-γ produced ([8]; treatment from day 13, FIG. 19b): substantially decreased
amounts of IL-17 produced ([8]; treatment from day 13, FIG. 19c): substantially decreased
IL-10+ Treg cells ([8]; treatment from day 13, FIG. 20): significantly increased
secretion of IL-10 ([8]; treatment from day 13, FIG. 19d): increased
recovery of recipients ([9]; DLN cell transfer, vs PBS-treated donors, FIG. 24): rapid recovery
mean maximum disease score ([9]; DLN cell transfer, vs PBS-treated donors, FIG. 25): significant reduction
EAE development in recipients ([9]; DLN cells of donors treated days 12-17, vs DLN cells from PBS-treated donors, FIG. 24): confer suppression
ex vivo proliferation to MOG35-55 ([9]; DLN cells of recipients, FIG. 26a): significantly decreased
levels of supernatant IFN-γ ([9]; DLN cells of recipients, FIG. 26b): decreased levels
levels of supernatant IL-17 ([9]; DLN cells of recipients, FIG. 26c): decreased levels
recruitment of CD11c+ dendritic cells ([9]; draining lymph nodes of recipients, FIG. 27a): substantially decreased
recruitment of IL-17 secreting T cells ([9]; draining lymph nodes of recipients, FIG. 27b): substantially decreased
recruitment of CD4+ Foxp3+ regulatory T cells ([9]; draining lymph nodes of recipients, FIG. 27c): increased
ex vivo proliferation to MOG35-55 ([10]; DLN cells of Rag−/− recipients, FIG. 33a): substantially decreased
production of IFN-γ ([10]; DLN cells of Rag−/− recipients, FIG. 33b): decreased production
production of IL-17 ([10]; DLN cells of Rag−/− recipients, FIG. 33c): decreased production
EAE scores induced in recipients ([10]; after pertussis toxin injections, FIGS. 31 and 32): very low EAE scores
protection from EAE development after cessation of treatment (EAE; treated 15 days from around day 13, monitored 45 additional days, FIGS. 34 and 35): remained protected
disease score after cessation of treatment (EAE; treated 15 days, monitored 45 additional days, vs control mice): remained unchanged
number of CD4+ IL-10-secreting T cells (Naive CD4+ T cells; among Th17 differentiating cells, 4 days, FIG. 37): significant increase
number of CD4+ IL-17-secreting T cells (Naive CD4+ T cells; and rIL-6, 4 days, vs RPMI, FIG. 36): increase
proliferation (naïve CD4+ T cells; Treg cell generating conditions, 5 days, FIG. 39): increased
number of Foxp3+ Treg cells (naïve CD4+ T cells; rIL-2, with or even without rTGF-β1, 5 days, FIG. 38): significant increase
production of IFN-γ ([11]; after OVA/CFA immunization): increased
T cell response to OVA ex vivo (3H-Thymidine incorporation) ([11]; after OVA/CFA immunization, FIG. 40): substantially increased
EAE phenotype after end of treatment and OVA/CFA injection ([11]; in comparison to control mice): stable phenotype without any deterioration
protection from EAE ([11]; treated 15 days from shortly after disease onset, then OVA/CFA): clearly protected
